According to patent US20250195551A1 (L4 BIO LLC, priority 2023, published 2025):

Legend:
[1] = Excipient compatibility study; type: physicochemical; details: for Total Impurities % (excluding API impurities %) / Chromatographic purity by HPLC (Assay): 40° C./75% RH
Method: An excipient compatibility study was initiated with selected excipients ranging from oils to surfactants based on equilibrium solubility results (Table 2). […] After solutions were prepared using a hand-held homogenizer (Model IKAT10 Ultra-Turrax), each excipient sample was aliquoted in amber vials, approximately 10% water was added in each excipient aliquot, and bench scale gel stripe OET-004037 was also made and added in a separate set of aliquot samples at approximately 1:1 w/w.
All samples were stored at 40° C./75% relative humidity (RH) condition (Model: Lunaire environmental chamber) and tested by developmental reversed phase HPLC method for Assay/Related Substances at T=0, 2 weeks, and 1 month.

glycine receptor (GlyR) = details: interaction with glycine receptor (GlyR) in humans; cited from earlier work
[2] = Solubility determination of ivermectin in excipients
Method: The solubility assessments were performed by continually adding a known amount of the API into each individual excipient and letting the excipient reach solubility equilibrium via API saturation (visible solid observed). The experiments were conducted at ambient conditions (25° C.) and were left to mix on a stir plate at 500 RPM for at least 72 hours.

[3] = in Oleic acid, Sample: Gel Stripe (1:1 w/w), T = 2 weeks
[4] = in PEG 400, Sample: 10% water, T = 2 weeks
[5] = in PEG 400, Sample: Control, T = 0
[6] = in PEG 400, Sample: Control, T = 2 weeks
[7] = in PEG 400, Sample: Gel Stripe (1:1 w/w), T = 2 weeks
[8] = in Tween 80, Sample: 10% water, T = 1 months
[9] = in Tween 80, Sample: 10% water, T = 2 weeks
[10] = in Tween 80, Sample: Control, T = 0
[11] = in Tween 80, Sample: Control, T = 1 months
[12] = in Tween 80, Sample: Control, T = 2 weeks
[13] = in Tween 80, Sample: Gel Stripe (1:1 w/w), T = 1 months
[14] = in Tween 80, Sample: Gel Stripe (1:1 w/w), T = 2 weeks
[15] = in Vitamin E TPGS, Sample: 10% water, T = 1 months
[16] = in Vitamin E TPGS, Sample: 10% water, T = 2 weeks
[17] = in Vitamin E TPGS, Sample: Control, T = 0
[18] = in Vitamin E TPGS, Sample: Control, T = 1 months
[19] = in Vitamin E TPGS, Sample: Control, T = 2 weeks
[20] = in Vitamin E TPGS, Sample: Gel Stripe (1:1 w/w), T = 1 months
[21] = in Vitamin E TPGS, Sample: Gel Stripe (1:1 w/w), T = 2 weeks

Substance: ivermectin
- Total Impurities % (excluding API impurities %) ([1]; in Oleic acid, Sample: Control, T = 2 weeks): 17.27 % adjusted area
- Chromatographic purity by HPLC (Assay) [1, 3]: 83.73 % area
- Total Impurities % (excluding API impurities %) [1, 3]: 11.82 % adjusted area
- Chromatographic purity by HPLC (Assay) [1, 4]: 94.35 % area
- Total Impurities % (excluding API impurities %) [1, 4]: 3.15 % adjusted area
- Chromatographic purity by HPLC (Assay) [1, 5]: 97.58 % area
- Total Impurities % (excluding API impurities %) [1, 5]: 0.10 % adjusted area
- Chromatographic purity by HPLC (Assay) [1, 6]: 89.36 % area
- Total Impurities % (excluding API impurities %) [1, 6]: 8.54 % adjusted area
- Chromatographic purity by HPLC (Assay) [1, 7]: 96.92 % area
- Total Impurities % (excluding API impurities %) [1, 7]: 0.50 % adjusted area
- Chromatographic purity by HPLC (Assay) [1, 8]: 91.18 % area
- Total Impurities % (excluding API impurities %) [1, 8]: 6.94 % adjusted area
- Chromatographic purity by HPLC (Assay) [1, 9]: 93.02 % area
- Total Impurities % (excluding API impurities %) [1, 9]: 3.53 % adjusted area
- Chromatographic purity by HPLC (Assay) [1, 10]: 97.53 % area
- Total Impurities % (excluding API impurities %) [1, 10]: 0.16 % adjusted area
- Chromatographic purity by HPLC (Assay) [1, 11]: 88.45 % area
- Total Impurities % (excluding API impurities %) [1, 11]: 10.55 % adjusted area
- Chromatographic purity by HPLC (Assay) [1, 12]: 91.87 % area
- Total Impurities % (excluding API impurities %) [1, 12]: 4.86 % adjusted area
- Chromatographic purity by HPLC (Assay) [1, 13]: 93.51 % area
- Total Impurities % (excluding API impurities %) [1, 13]: 4.22 % adjusted area
- Chromatographic purity by HPLC (Assay) [1, 14]: 93.97 % area
- Total Impurities % (excluding API impurities %) [1, 14]: 2.43 % adjusted area
- Chromatographic purity by HPLC (Assay) [1, 15]: 97.46 % area
- Total Impurities % (excluding API impurities %) [1, 15]: <LOQ
- Chromatographic purity by HPLC (Assay) [1, 16]: 96.99 % area
- Total Impurities % (excluding API impurities %) [1, 16]: 0.42 % adjusted area
- Chromatographic purity by HPLC (Assay) [1, 17]: 97.74 % area
- Total Impurities % (excluding API impurities %) [1, 17]: <LOQ
- Chromatographic purity by HPLC (Assay) [1, 18]: 97.37 % area
- Total Impurities % (excluding API impurities %) [1, 18]: 0.11 % adjusted area
- Chromatographic purity by HPLC (Assay) [1, 19]: 97.43 % area
- Total Impurities % (excluding API impurities %) [1, 19]: <LOQ
- Chromatographic purity by HPLC (Assay) [1, 20]: 97.74 % area
- Total Impurities % (excluding API impurities %) [1, 20]: <LOQ
- Chromatographic purity by HPLC (Assay) [1, 21]: 97.50 % area
- Total Impurities % (excluding API impurities %) [1, 21]: <LOQ
- Chemical compatibility with the API ([1]; oily vehicles including Maisine CC, fractionated coconut oil, and oleic acid): good chemical compatibility
- EC50 (glycine receptor (GlyR)): ~1200 nM
- Solubility ([2]; in Capryol 90, 25° C.): 150.92 mg/g
- Solubility ([2]; in Fractionated Coconut oil, 25° C.): 16.55 mg/g
- Solubility ([2]; in Glycerin, 25° C.): <0.1 mg/g
- Solubility ([2]; in Kolliphor EL, 25° C.): 95.85 mg/g
- Solubility ([2]; in Labrafil M 2125 CS, 25° C.): 35.32 mg/g
- Solubility ([2]; in Labrasol ALF, 25° C.): 126.36 mg/g
- Solubility ([2]; in LauroglycolTM FCC, 25° C.): 71.96 mg/g
- Solubility ([2]; in Maisine CC, 25° C.): 60.17 mg/g
- Solubility ([2]; in Masester E8120, 25° C.): 164.06 mg/g
- Solubility ([2]; in Medium Chain Triglyceride, 25° C.): 16.49 mg/g
- Solubility ([2]; in Oleic acid, 25° C.): 48.58 mg/g
- Solubility ([2]; in Olive oil, 25° C.): 4.71 mg/g
- Solubility ([2]; in PEG 400, 25° C.): 112.92 mg/g
- Solubility ([2]; in Propylene glycol, 25° C.): 25.61 mg/g
- Solubility ([2]; in Soybean oil, 25° C.): 6.72 mg/g
- Solubility ([2]; in Span 20, 25° C.): 97.66 mg/g
- Solubility ([2]; in Span 80, 25° C.): 54.04 mg/g
- Solubility ([2]; in Triacetin, 25° C.): 58.75 mg/g
- Solubility ([2]; in Tween 80, 25° C.): 88.26 mg/g
- Solubility ([2]; in Vitamin E TPGS, table title 25° C., text: conducted at 40° C.): 82.98 mg/g
